Assay results from patent US20140037659A1 (Yissum Research Development Company of the Hebrew …, priority 2011, published 2014).

Experiments:
MDSCs [1] = conditions: recently demonstrated, reference 30; cited from earlier work
MDSCs [2] = test: 5FU treatment of BCG-treated mice displaying chronic inflammation; type: in vivo
Description: Normal C57B116 mice repeatedly exposed to heat-killed BCG were used as the mouse model for chronic inflammation^1. BCG was administered by three subcutaneous injections at 1 wk intervals, 100 μg per animal/dose; the first two doses were administrated with IFA (Incomplete Freund's adjuvant), and subsequent injections included heat-killed BCG in PBS. Unless stated otherwise, splenocytes were collected 2-3 days after the last injection. Control mice remained untreated. For experiments with chicken OVA (Sigma) as antigen, the same protocol was maintained: For a Th1 response BCG was administered as above but with OVA. For a Th2 response, the first and second injections were with 100 μg OVA adsorbed to Al(OH)3 (alum; Thermo), and the third injection was with 100 μg OVA in PBS. Experimental groups included at least three mice, and each experiment was repeated at least three times.
BCG-treated mice received three i.p. injections of 5-fluorouracil (5FU); The first 5FU injection (1 mg/mouse) was given at the day of the second BCG treatment and the second 5FU injection was given four days later. The third 5FU injection (0.5 mg/mouse) was given at the day of the third BCG treatment.
All the antibodies were purchased from Biolegend.

[3] = target: T1, SNX9 (sorting nexin 9 protein), endogenous in EL4 T cell line (Mus musculus, UniProt Q91VH2 1-595); test: immunoprecipitation of EL4 lysate with anti-CD3δ, immunoblot for SNX9
T1 construct: Endogenous protein in a Triton X-100 lysate of EL4 T cells; also called sorting nexin-9 [Mus musculus]

[4] = splenic cells of BCG+5FU treated mice vs BCG treated mice, immunoblotting, FIG. 14A

T1 sequence (Q91VH2 whole entry): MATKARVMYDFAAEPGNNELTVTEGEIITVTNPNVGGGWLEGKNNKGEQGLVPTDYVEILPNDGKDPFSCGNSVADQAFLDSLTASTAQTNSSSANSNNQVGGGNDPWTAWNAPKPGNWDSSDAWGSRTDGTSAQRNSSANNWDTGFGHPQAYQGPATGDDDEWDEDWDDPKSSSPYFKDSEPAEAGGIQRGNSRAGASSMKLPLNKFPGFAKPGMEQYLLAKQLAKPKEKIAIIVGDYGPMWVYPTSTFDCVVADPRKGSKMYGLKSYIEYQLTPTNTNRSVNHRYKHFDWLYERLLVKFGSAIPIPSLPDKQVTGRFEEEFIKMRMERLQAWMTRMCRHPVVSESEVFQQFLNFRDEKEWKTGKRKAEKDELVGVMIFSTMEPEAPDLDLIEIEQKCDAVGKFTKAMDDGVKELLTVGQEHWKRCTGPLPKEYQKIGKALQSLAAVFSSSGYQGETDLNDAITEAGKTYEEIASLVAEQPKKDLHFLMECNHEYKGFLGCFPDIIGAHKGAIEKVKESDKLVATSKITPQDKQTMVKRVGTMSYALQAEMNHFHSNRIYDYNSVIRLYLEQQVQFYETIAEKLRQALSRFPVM

| binding result [3] | Molecule | effect on MDSCs (MDSCs [1]) | MDSCs levels (Gr1+Mac1+ double-positive cells) (MDSCs [2]; FACS of cells from BCG+5FU treated mice, FIG. 14B, C) | SNX9 expression levels (MDSCs [2]; [4]) | ζ chain expression levels (MDSCs [2]; [4]) |
| --- | --- | --- | --- | --- | --- |
|  | O=c1[nH]cc(F)c(=O)[nH]1 [5FU, 5-fluorouracil] | cytotoxic effect on MDSCs | Eliminates MDSCs | recovery | recovery |
| no binding | CD3δ of EL4 T cell line (receptor, UniProt P04235 22-173, looked up, Immunoprecipitated from EL4 lysate with anti-CD3δ antibody) FKIQVTEYEDKVFVTCNTSVMHLDGTVEGWFAKNKTLNLGKGVLDPRGIYLCNGTEQLAKVVSSVQVHYRMCQNCVELDSGTMAGVIFIDLIATLLLALGVYCFAGHETGRPSGAAEVQALLKNEQLYQPLRDREDTQYSRLGGNWPRNKKS |  |  |  |  |
